In patent US20240041042A1, “1-(PYRIDYL)-5-AZINYLPYRAZOLE DERIVATIVES, AND THEIR USE FOR CONTROL OF UNDESIRED PLANT GROWTH” (Bayer Aktiengesellschaft, priority 2020, published 2024):
Where two headings read alike, the source gives them in different places.

Legend:
Assay type in all cases: in vivo
[1] = test system: Echinochloa crus-galli (ECHCG); test: Pre-emergence herbicidal action against ECHCG; details: dosage 320 g/ha
Summary of the method: (§1)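 Application rates ran to 320 g/ha or lower, with several dosages tested on the same weeds. The compound, as wettable powder or emulsion concentrate, is sprayed pre-emergence onto soil over sown seeds; greenhouse growth follows, and effect is rated visually after roughly 3 weeks.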

[2] = test system: Polygonum convolvulus (POLCO); test: Post-emergence herbicidal action against POLCO; details: dosage 80 g/ha
Summary of the method: (§2)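 Doses of 320 g/ha or lower, suffixes a, b and c marking different dosages, were applied post-emergence at the one-leaf stage in 600 l/ha water with 0.5% additive. Damage was assessed visually after about 3 weeks in the greenhouse.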

Setaria viridis (SETVI) [3] = test: Pre-emergence herbicidal action against SETVI
Summary of the method: as §1

[4] = test system: Amaranthus retroflexus (AMARE); test: Post-emergence herbicidal action against AMARE; details: 80 g/ha, visual rating about 3 weeks after treatment vs untreated controls (100% = plants have died, 0% = like control plants)
Summary of the method: as §2

[5] = test system: Polygonum convolvulus (POLCO); test: Pre-emergence herbicidal action against POLCO; details: dosage 320 g/ha
Summary of the method: as §1

[6] = test system: Matricaria inodora (MATIN); test: Pre-emergence herbicidal action against MATIN; details: dosage 320 g/ha
Summary of the method: as §1

Oryza sativa (ORYSA) [7] = details: pre-emergence, 80 g/ha, crop plant compatibility, in comparison to untreated controls
Summary of the method: (§3)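 Crop injury rated visually in percent against untreated plants roughly 3 weeks after treatment (0% no effect, 100% plants dead). Compounds, as WP or EC with 0.5% additive in 600 l/ha water, were applied to the covering soil right after sowing; greenhouse growth. Suffixes a, b, c denote different dosages.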

Zea mays (ZEAMX) [8] = details: pre-emergence, 80 g/ha, crop plant compatibility, in comparison to untreated controls
Summary of the method: as §3

[9] = test system: Digitaria sanguinalis (DIGSA); test: Pre-emergence herbicidal action against DIGSA
Summary of the method: as §1

Viola tricolor (VIOTR) [10] = test: Pre-emergence herbicidal action against VIOTR
Summary of the method: as §1

[11] = test system: Verconica persica (VERPE); test: Pre-emergence herbicidal action against VERPE; details: dosage 320 g/ha
Summary of the method: as §1

[12] = test system: Amaranthus retroflexus (AMARE); test: Pre-emergence herbicidal action against AMARE; details: visual scoring after about 3 weeks vs untreated controls
Summary of the method: as §1

Avena fatua (AVEFA) [13] = test: Pre-emergence herbicidal action against AVEFA; details: 320 g/ha, visual scoring after about 3 weeks vs untreated controls
Summary of the method: as §1

Lolium rigidum (LOLRI) [14] = test: Pre-emergence herbicidal action against LOLRI
Summary of the method: as §1

[15] = test system: Pharbitis purpurea (PHBPU); test: Pre-emergence herbicidal action against PHBPU
Summary of the method: as §1

[16] = test system: Alopecurus myosuroides (ALOMY); test: Pre-emergence herbicidal action against ALOMY; details: scored visually after about 3 weeks, 100% = plants have died
Summary of the method: as §1

[17] = test system: Verconica persica (VERPE); test: Post-emergence herbicidal action against VERPE; details: dosage 80 g/ha
Summary of the method: as §2

Oryza sativa (ORYSA) [18] = details: crop plant compatibility
Summary of the method: (§4)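 Test crops were treated 2 to 3 weeks after sowing, once they reached one leaf, by spraying compound in water with 0.5% additive at 600 l/ha. Visual scoring compared them with untreated controls roughly 3 weeks on, and appendices a, b and c denote different doses.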

Zea mays (ZEAMX) [19] = details: 20 g/ha, ZEAMX, effect in comparison to untreated controls
Summary of the method: as §4

[20] = test system: Echinochloa crus-galli (ECHCG); test: Post-emergence herbicidal action against ECHCG; details: dosage 80 g/ha
Summary of the method: as §2

[21] = test system: Pharbitis purpurea (PHBPU); test: Post-emergence herbicidal action against PHBPU; details: dosage 80 g/ha
Summary of the method: as §2

Setaria viridis (SETVI) [22] = test: Post-emergence herbicidal action against SETVI; details: dosage 80 g/ha
Summary of the method: as §2

[23] = test system: Digitaria sanguinalis (DIGSA); test: Post-emergence herbicidal action against DIGSA; details: 80 g/ha, visual rating about 3 weeks after treatment
Summary of the method: as §2

[24] = test system: Abutilon theophrasti (ABUTH); test: Post-emergence herbicidal action against ABUTH; details: 80 g/ha, visual rating about 3 weeks after treatment vs untreated controls (100% = plants have died, 0% = like control plants)
Summary of the method: as §2

Lolium rigidum (LOLRI) [25] = test: Post-emergence herbicidal action against LOLRI; details: dosage 80 g/ha
Summary of the method: as §2

Viola tricolor (VIOTR) [26] = test: Post-emergence herbicidal action against VIOTR; details: 80 g/ha
Summary of the method: as §2

[27] = test system: Alopecurus myosuroides (ALOMY); test: Post-emergence herbicidal action against ALOMY; details: 80 g/ha, visual rating about 3 weeks after treatment vs untreated controls (100% = plants have died, 0% = like control plants)
Summary of the method: as §2

[28] = test system: Matricaria inodora (MATIN); test: Post-emergence herbicidal action against MATIN; details: dosage 80 g/ha
Summary of the method: as §2

Avena fatua (AVEFA) [29] = test: Post-emergence herbicidal action against AVEFA; details: 80 g/ha, visual rating about 3 weeks after treatment
Summary of the method: as §2

[30] = 80 g/ha, visual scoring after about 3 weeks vs untreated controls
[31] = 20 g/ha, effect vs untreated controls
[32] = 80 g/ha, effect in comparison to untreated controls

Row | SMILES | Pre-emergence action against ECHCG in % [1] | Pre-emergence action against SETVI in % (Setaria viridis (SETVI) [3]; dosage 80 g/ha) | Pre-emergence action against SETVI in % (Setaria viridis (SETVI) [3]; dosage 320 g/ha) | Post-emergence action against AMARE in % [4] | Pre-emergence action against POLCO in % [5] | Pre-emergence action against MATIN in % [6] | Pre-emergence action against ORYSA in % (Oryza sativa (ORYSA) [7]) | Pre-emergence action against DIGSA in % [9, 30] | Pre-emergence action against DIGSA in % ([9]; dosage 320 g/ha) | Pre-emergence action against VIOTR in % (Viola tricolor (VIOTR) [10]; 320 g/ha, Viola tricolor) | Pre-emergence action against VERPE in % [11] | Pre-emergence action against AMARE in % ([12]; 80 g/ha) | Pre-emergence action against AMARE in % ([12]; 320 g/ha) | Pre-emergence action against AVEFA in % (Avena fatua (AVEFA) [13]) | Pre-emergence action against LOLRI in % (Lolium rigidum (LOLRI) [14]; dosage 320 g/ha) | Pre-emergence action against PHBPU in % ([15]; dosage 320 g/ha) | Pre-emergence action against ALOMY ([16]; 80 g/ha) | Pre-emergence action against ALOMY ([16]; 320 g/ha) | Post-emergence action against VERPE in % [17] | Post-emergence action against ORYSA in % (Oryza sativa (ORYSA) [18]; [31]) | also measured
1 | O=C(O)COc1nn(-c2ccccn2)c(-c2ccnc(F)c2)c1Br [Example I-122] | 100% | 100% | 100% | 90% | 80% | 80% | 0% | 100% | 100% | 100% | 100% | 80% | 100% | 90% | 100% | 90% | 80% | 100% | 80% | 0% | Post-emergence action against POLCO in % [2]: 90%; Pre-emergence action against ZEAMX in % (Zea mays (ZEAMX) [8]): 0%; Pre-emergence action against VIOTR in % (Viola tricolor (VIOTR) [10]; dosage 80 g/ha): 100%; Post-emergence action against ORYSA in % (Oryza sativa (ORYSA) [18]; [32]): 0%; Post-emergence action against ZEAMX in % (crop plant compatibility) (Zea mays (ZEAMX) [19]): 0%
2 | COC(=O)CNC(=O)COc1nn(-c2ccccn2)c(-c2ccc(F)nc2)c1Cl [Example I-64] | 100% | 90% | 100% | 90% | 90% | 90% | 20% | 100% | 100% | 90% | 90% | 100% | 100% | 90% | 100% | 90% | 90% | 100% | 90% | 10% | Post-emergence action against ECHCG in % [20]: 90%; Post-emergence action against PHBPU in % [21]: 90%; Post-emergence action against SETVI in % (Setaria viridis (SETVI) [22]): 90%; Post-emergence action against DIGSA in % [23]: 90%; Post-emergence action against ABUTH in % [24]: 90%; Post-emergence action against LOLRI in % (Lolium rigidum (LOLRI) [25]): 80%; Post-emergence action against VIOTR in % (Viola tricolor (VIOTR) [26]): 80%; Post-emergence action against ALOMY in % [27]: 100%; Post-emergence action against MATIN in % [28]: 90%; Post-emergence action against AVEFA in % (Avena fatua (AVEFA) [29]): 80%; Pre-emergence action against LOLRI in % (Lolium rigidum (LOLRI) [14]; dosage 80 g/ha): 80%; Pre-emergence action against PHBPU in % ([15]; dosage 80 g/ha): 90%
3 | COC(=O)CNC(=O)COc1nn(-c2ccccn2)c(-c2ccc(F)nc2)c1Br [Example I-97] | – | 80% | 100% | 90% | 90% | 80% | 10% | 100% | 100% | 100% | 90% | 90% | 100% | 80% | 100% | 90% | 90% | 100% | 90% | 0% | Post-emergence action against ECHCG in % [20]: 80%; Post-emergence action against PHBPU in % [21]: 80%; Post-emergence action against SETVI in % (Setaria viridis (SETVI) [22]): 80%; Post-emergence action against DIGSA in % [23]: 80%; Post-emergence action against ABUTH in % [24]: 90%; Post-emergence action against VIOTR in % (Viola tricolor (VIOTR) [26]): 80%; Post-emergence action against ALOMY in % [27]: 90%; Post-emergence action against MATIN in % [28]: 80%; Post-emergence action against AVEFA in % (Avena fatua (AVEFA) [29]): 80%; Pre-emergence action against LOLRI in % (Lolium rigidum (LOLRI) [14]; dosage 80 g/ha): 80%; Post-emergence action against ORYSA in % (Oryza sativa (ORYSA) [18]; [32]): 10%
